These are literature values, as cited in patent US20160051468A1, “Compositions for Prevention and/or Treatment of Gastrointestinal Imbalances in Digestive Disorders” (BRIGHT DRINKS INC., priority 2013, published 2016).

Each structure is given as a SMILES string.

One series has as its system TNFα. To be noted: LPS-stimulated macrophage cell line; dose-response fashion.
The test system of series [1] is NF-κB. To be noted: human IEC lines; by inhibiting I-κB kinase activity.
The conditions of series [2]: in vitro, compared with other tea catechins.
In the next series the test system is DNA. The following applies: hydroxyl radical attack, in vitro.
Series [3] deals with NF-κB. To be noted: human colon carcinoma cell line.

With `O=C(O[C@@H]1Cc2c(O)cc(O)cc2O[C@@H]1c1cc(O)c(O)c(O)c1)c1cc(O)c(O)c(O)c1` [EGCG, epigallocatechin gallate], in the series on H. pylori (110 mostly clinical isolates of H. pylori), the “minimum-inhibitory-concentration (MIC) for 90% of isolates” value was 32 μg per mL. Further, in the series with H. pylori (H. pylori in vitro), the “concentration with bactericidal effect” value is recorded as 4 times the MIC and the “concentration with bacteriostatic effect” value is 2 times the MIC. For the same molecule, in the series on TNFα, the TNFα protein levels result is recorded as “significant decrease”. The NF-κB activation result in the series with NF-κB [1] is listed as “blocking NF-κB activation”. Moreover, the “scavenging of superoxide anion and hydroxyl radical” value in series [2] is “most effective of all catechins”. The “reduction of oxidative damage sustained by DNA” value in the series with DNA was “highly active”.
For `CCC(=O)O` [Propionate], in the series with NF-κB [3], the “suppression of NF-κB reporter activity, relative potency” value is recorded as “equipotent”.
For the molecule `CC(=O)O` [acetate], in the series on NF-κB [3], the “suppression of NF-κB reporter activity, relative potency” value was “slightly less effective”.
